Measurements taken from patent publication US5277897A, “In vivo enhancement of cellular accumulation of lipophilic cationic organometallic compounds by reduction of intramembrane potential” (Brigham and Women's Hospital, priority 1992, dated 1994).

Columns and labels:
[1] = tested on: cultured chick myocardial cells; settings: cited from earlier work
[2] = tested on: cultured chick heart cells; assay: Influence of TPB and CCCP on (membrane potential-independent) accumulation of Tc-MIBI (FIG. 4); assay type: cell-based; settings: CCCP 5 uM; presence and absence of TPB; P<0.001
Experimental: FIG. 4. […] Preparations were incubated for the times indicated in 5.4 mM Ko control loading buffer containing tracer Tc-MIBI and TPB together (Δ) or in loading buffer containing Tc-MIBI alone (.quadrature.). For the latter incubation, TPB was added to the loading buffer at the arrow and cell content of Tc-MIBI subsequently determined (o). Under each condition, CCCP was added to the loading buffers as indicated by the arrows and cell content of Tc-MIBI determined ( , , ·). Each point is the mean ±SEM of 3 determinations.
(§1) Monolayers of spontaneously contractile chick ventricular myocardial cells were obtained from disaggregated 10-day old chick embryo hearts by a slight modification of previously published methods (Horres, C. R., et al., In Pinson, A. (ed.), The Heart Cell in Culture, Boca Raton, CRC Press, pp. 77-108 (1987)). Hearts were trimmed of connective tissue and atria, finely minced and serially exposed to 0.024% (w/v) trypsin in Ca^2+ - and Mg^2+ - free Earle's salt solution for 7 minutes at 37° C. Gentle trituration and agitation on an orbital shaker bath aided disaggregation. Cells released from the first exposure were discarded and cells aspirated from the next four exposures were then added to an equal volume of trypsin deactivating solution consisting of ice-cold culture medium. Cells were centrifuged at 400 g for 10 minutes, resuspended and combined in culture medium, counted with a hemocytometer and diluted to yield a suspension of 5×10^5 cells/ml. 12 ml of suspension were incubated in 100 mm plastic culture dishes containing 7 coverslips (25 mm diameter) placed on the bottom of each dish to serve as substrate for cell growth. Cells were maintained in a humidified atmosphere of 5% CO2 /95% air for 3-4 days yielding a confluent layer of spontaneously contractile myocytes on each coverslip.
Radioactive uptake methods have been described in detail (Piwnica-Worms, D., et al, Circ. (in press). Briefly, coverslips with confluent cells were removed from culture media and pre-equilibrated for 40-60 seconds in MEBSS buffer. Uptake and retention experiments were initiated by immersion of coverslips in 60 mm glass Pyrex dishes containing loading solution consisting of buffer with 0.1-0.6 nM [^99m Tc-MIBI] (0.01-0.4 Ci/nmole; 25-100 uCi/ml). Preparations were removed at various times and rinsed three times in 25 ml volumes of ice-cold (2° C.) isotope-free buffer for 8 seconds each to clear extracellular spaces. Preparations and aliquots of the loading buffer and stock solutions were counted in a well-type sodium iodide gamma counter after which cell protein on each coverslip was extracted in 1% sodium dodecylsulfate with 10 mM sodium borate and assayed by the method of Lowry (Lowry, O. H., et al., J. Biol. Chem. 193:265-275 (1951)). Tc-MIBI binding to glass coverslips without cells was used as an estimate of non-specific adhesion to the substrate ([…] obtained with cellular preparations); this value was subtracted from total uptake determinations to derive the cell-associated counts. Use of generator equilibrium equations (Lamson, M. L., et al., i J. Nucl. Med. 16:639-641 (1975)) allowed calculation of absolute moles of Tc-MIBI in solutions and preparations. Results were therefore expressed as fmol cellular Tc-MIBI/mg protein per nM extracellular Tc-MIBI concentration. […]

[3] = tested on: cultured chick heart cells; assay: Effect of MSA on Tc-MIBI net accumulation (FIG. 3); assay type: cell-based; settings: MSA 5.4 mM
Experimental: FIG. 3. Effect of MSA on Tc-MIBI net accumulation. Preparations were incubated for the times indicated in Tc-MIBI loading buffer containing 5.4 mM KCl (.quadrature., .smallcircle.) or 5.4 mM K-MSA ( , ·; prepared by equimolar substitution of K-MSA KCl) in the absence (.quadrature., ) or presence (.smallcircle., ·) of TPB (10^-5 M). Each point represents the mean ±SEM of 3 determinations.
Control buffer was a modified Earle's balanced salt solution (MEBSS) with the following composition (mN) Na^30, 145; K^+, 5.4; Ca^2, 1.2; Mg^2+, 0.8; Cl, 152; H2 PO4, 0.8; SO4^2-, 0.8; dextrose, 5.6; HEPES, 4.0; and bovine calf serum, 1% (v/v); […]; 37° C. K-methanesulfonate was made by titration of methanesulfonic acid with KOH (Piwnica-Worms, D., et al., J. Gen. Physiol. 81:731-748 (1983)) and replaced […] in some solutions by equimolar substitution where indicated. Natetraphenylborate, CCCP, bumetanide and valinomycin were dissolved into DMSO prior to addition to buffer. DMSO alone has no significant affect on contractile activity, action potential configuration (Lieberman, M., et al., Dev. Biol. 31:380-403 (1973)) or Tc-MIBI uptake kinetics (Piwnica-Worms, D., et al., Circ. (in press)).
(§2) Monolayers of spontaneously contractile chick ventricular myocardial cells were obtained from disaggregated 10-day old chick embryo hearts by a slight modification of previously published methods (Horres, C. R., et al., In Pinson, A. (ed.), The Heart Cell in Culture, Boca Raton, CRC Press, pp. 77-108 (1987)). […] Cells were centrifuged at 400 g for 10 minutes, resuspended and combined in culture medium, counted with a hemocytometer and diluted to yield a suspension of 5×10^5 cells/ml. […]
Radioactive uptake methods have been described in detail (Piwnica-Worms, D., et al, Circ. (in press). Briefly, coverslips with confluent cells were removed from culture media and pre-equilibrated for 40-60 seconds in MEBSS buffer. Uptake and retention experiments were initiated by immersion of coverslips in 60 mm glass Pyrex dishes containing loading solution consisting of buffer with 0.1-0.6 nM [^99m Tc-MIBI] (0.01-0.4 Ci/nmole; 25-100 uCi/ml). Preparations were removed at various times and rinsed three times in 25 ml volumes of ice-cold (2° C.) isotope-free buffer for 8 seconds each to clear extracellular spaces. Preparations and aliquots of the loading buffer and stock solutions were counted in a well-type sodium iodide gamma counter after which cell protein on each coverslip was extracted in 1% sodium dodecylsulfate with 10 mM sodium borate and assayed by the method of Lowry (Lowry, O. H., et al., J. Biol. Chem. 193:265-275 (1951)). […]

cells and mitochondria = settings: cited from earlier work; for toxic effects on mitochondrial function: typical loading activities
[4] = tested on: cultured chick heart cells; assay: Effect of phloretin, alone or with TPB, on net uptake of Tc-MIBI in cultured chick heart cells (FIG. 7, 8); assay type: cell-based
Experimental: FIG. 7. Effect of phloretin on net accumulation of Tc-M1B1 in cultured heart cells. Preparations were incubated for the times indicated in Tc-MIBI loading buffer in the absence (.quadrature.) or presence of phloretin ( , 10^-7 M; , 10^-4 M). Each point represents the mean ±SEM of 3-4 determinations.
FIG. 8. Effect of phloretin and tetraphenylborate together on net uptake of Tc-MB1 in cultured chick heart cells. Preparations were incubated in MEBSS containing Tc-MIBI for 30 minutes in the absence (control) or presence of tetraphenylborate and phloretin each alone or in combination as indicated on the abscissa. Each group of four conditions (two groups in A and one group in B) represent separate cultures. Error bars indicate ±SEM for three or more determinations.
as §2
Radioactive uptake methods have been described in detail (Piwnica-Worms, D., et al, Circ. (in press). Briefly, coverslips with confluent cells were removed from culture media and pre-equilibrated for 40-60 seconds in MEBSS buffer. Uptake and retention experiments were initiated by immersion of coverslips in 60 mm glass Pyrex dishes containing loading solution consisting of buffer with 0.1-0.6 nM [^99m Tc-MIBI] (0.01-0.4 Ci/nmole; 25-100 uCi/ml). Preparations were removed at various times and rinsed three times in 25 ml volumes of ice-cold (2° C.) isotope-free buffer for 8 seconds each to clear extracellular spaces. […] Results were therefore expressed as fmol cellular Tc-MIBI/mg protein per nM extracellular Tc-MIBI concentration. […]

[5] = tested on: cultured chick heart cells; assay: Effect of valinomycin on tetraphenylborate enhancement of Tc-MIBI accumulation in high Ko buffer (Table 1); assay type: cell-based; settings: valinomycin 1 ug/ml; high K buffer
Experimental: as §1
Radioactive uptake methods have been described in detail (Piwnica-Worms, D., et al, Circ. (in press). Briefly, coverslips with confluent cells were removed from culture media and pre-equilibrated for 40-60 seconds in MEBSS buffer. Uptake and retention experiments were initiated by immersion of coverslips in 60 mm glass Pyrex dishes containing loading solution consisting of buffer with 0.1-0.6 nM [^99m Tc-MIBI] (0.01-0.4 Ci/nmole; 25-100 uCi/ml). Preparations were removed at various times and rinsed three times in 25 ml volumes of ice-cold (2° C.) isotope-free buffer for 8 seconds each to clear extracellular spaces. Preparations and aliquots of the loading buffer and stock solutions were counted in a well-type sodium iodide gamma counter after which cell protein on each coverslip was extracted in 1% sodium dodecylsulfate with 10 mM sodium borate and assayed by the method of Lowry (Lowry, O. H., et al., J. Biol. Chem. 193:265-275 (1951)). Tc-MIBI binding to glass coverslips without cells was used as an estimate of non-specific adhesion to the substrate ([…] obtained with cellular preparations); this value was subtracted from total uptake determinations to derive the cell-associated counts. Use of generator equilibrium equations (Lamson, M. L., et al., i J. Nucl. Med. 16:639-641 (1975)) allowed calculation of absolute moles of Tc-MIBI in solutions and preparations. Results were therefore expressed as fmol cellular Tc-MIBI/mg protein per nM extracellular Tc-MIBI concentration. Division of this value by the cell water space (6.9 ul/mg protein; Chiu, M. L., et al., J. Nucl. Med. (31:1646-1653(1990)) yields a nominal intracellular/extracellular Tc-MIBI accumulation ratio neglecting subcellular compartmentation of the agent.
To further explore the influence of TPB on any potential-independent accumulation of Tc-MIBI in myocytes, preparations were exposed to 130 mM K° 20 mM Clo buffer (Table 1). […] Equilibration of intracellular and extracellular spaces occurred in the presence of high K buffer plus valinomycin under all conditions (in/out ration ~1; P=NS) indicating the lack of any significant potential-independent membrane binding of Tc-MIBI.
Preparations were incubated in high Ko low Clo loading buffer +/- valinomycin (1 ug/ml) for 20 minutes in the presence of TPB (10^-5 M) or for 40 minutes in its absence to determine peak accumulation of Tc-MIBI under each condition. Values are the mean ±SEM. Tc-MIBI in/out ratios were obtained by dividing net uptake values by the cell water space of […] (Chiu, M. L., et al., J. Nucl. 31:1646-1653 (1990)). +p<0.01; * p<0.001 compared to net uptake in 130 mM Ko buffer.

In the case of `N#CC(C#N)=NNc1cccc(Cl)c1` [CCCP, carbonyl cyanide-m-chlorphenylhydrazone, reference compound], the “unidirectional influx and net cellular accumulation of Tc-MIBI” value ([1]; CCCP, mitochondrial depolarization) is listed as “decreases the unidirectional influx and net cellular accumulation of TC-MIBI” and the “release of myocellular Tc-MIBI” value [2] is listed as “rapid and near complete release of myocellular Tc-MIBI”.

For `CS(=O)(=O)O` [MSA, methanesulfonate, reference compound], the “uptake kinetics or equilibrium content of Tc-MIBI” value [3] was “did not significantly alter uptake kinetics or equilibrium content of Tc-MIBI” and the “TPB-induced enhancement of Tc-MIBI accumulation” value ([3]; TPB 10^-5 M) was “did not interfere with the TPB-induced enhancement of Tc-MIBI accumulation”.

For `c1ccc([P+](c2ccccc2)(c2ccccc2)c2ccccc2)cc1` [TPP^+, tetraphenylphosphonium], the “toxic effects on mitochondrial function” value (cells and mitochondria) is listed as “toxic effects on mitochondrial function”.

In the case of `CO[C@@H]1C[C@@H](C[C@H]2CC[C@H](C)[C@H]([C@@H](C)C(=O)O)O2)O[C@]2(O[C@](C)([C@H]3CC[C@@](C)([C@@H]4O[C@@H]([C@H]5O[C@@](O)(CO)[C@H](C)C[C@@H]5C)C[C@@H]4C)O3)C[C@H]2C)[C@@H]1C` [nigericin], the “net cellular uptake of Tc-MIBI” value ([1]; nigericin, mitochondrial hyperpolarization) is listed as “increases net cellular uptake of Tc-MIBI”.

In the case of `CC[C@H]1/C=C/C=C/C[C@@H](C)[C@H](O)[C@@](C)(O)C(=O)[C@@H](C)[C@H](O)[C@@H](C)C(=O)[C@@H](C)[C@H](O)[C@@H](C)/C=C/C(=O)O[C@@H]2[C@H](C)[C@H](CC1)O[C@]1(CC[C@H](C)[C@H](C[C@@H](C)O)O1)[C@H]2C` [oligomycin], the “Tc-MIBI uptake or retention” value ([1]; oligomycin, mitochondrial hyperpolarization) is listed as “increases Tc-MIBI uptake or retention”.

With `O=C(CCc1ccc(O)cc1)c1c(O)cc(O)cc1O` [phloretin, 3-(4-hydroxyphenyl)-1-(2,4,6-trihydroxyphenyl)-1-propanone] the fold induction at 100 µM ([4]; Gallus gallus, 0.5 h, phloretin 10^-4 M, 30 minute uptake (FIG. 8), approximately, read-out: net retention of Tc-MIBI above control levels) was 2.5 to 3.5, the “additive enhancement by tetraphenylborate and phloretin” value ([4]; phloretin 10^-4 M and 10^-5 M with 10^-5 M TPB, 30 minutes) was “no evidence of additive enhancement by tetraphenylborate and phloretin” and the “net uptake of Tc-MIBI enhanced above control” value ([4]; phloretin 10^-4 M, within 30 minutes (FIG. 7)) was “five-fold”.

For `COC(=O)c1ccccc1-c1c2ccc(=N)cc-2oc2cc(N)ccc12` [rhodamine 123], the “toxicity to cells and mitochondria” value (cells and mitochondria) is listed as “shown to be toxic to cells and mitochondria” and the “toxic effects on mitochondrial function” value (cells and mitochondria) is listed as “toxic effects on mitochondrial function”.

For `[N-]=[N+]=[N-]` [sodium azide], the “net uptake of Tc-MIBI” value ([1]; sodium azide in combination with oligomycin) is listed as “virtually eliminates net uptake of the agent”.

With `CC(C)[C@@H]1NC(=O)[C@H](C)OC(=O)[C@@H](C(C)C)NC(=O)[C@@H](C(C)C)OC(=O)[C@H](C(C)C)NC(=O)[C@H](C)OC(=O)[C@@H](C(C)C)NC(=O)[C@@H](C(C)C)OC(=O)[C@H](C(C)C)NC(=O)[C@H](C)OC(=O)[C@@H](C(C)C)NC(=O)[C@@H](C(C)C)OC1=O` [valinomycin, reference compound] the “net accumulation of Tc-MIBI” value [5] was “eliminated net accumulation of Tc-MIBI”.
